Reference: US4216214A, “4-Tert. butyl-3'-chlorodiphenylamine derivatives, their preparation and their application as anti-histaminic drugs” (PRODESIN (Productos Esteve Internacional S.A.), priority 1977, dated 1980)
Where “and” joins values, the source holds several entries; their conditions need not be identical. Equal values may be shown once.

What was measured:
[1] = test system: Deferent of Rat (agonist Norepinephrine); test: Test on isolated organ: contraction by norepinephrine; type: cell-based; details: agonist Norepinephrine 1.0 μ, read-out: Cl-50 of products, Norepinephrine
Procedure: (§1) During this test, the products are added to the bath in an aqueous solution. The interaction of the various products is determined with different […]: Histamine, acetyl choline, serotonine and norepinephrine. The […] are employed in constant doses to produce contractions in the various biological reactants described below in table III.
(§2) The micromolar concentration which inhibits 50% of the response produced by the constant concentration of each agonist (Cl-50) is determined for each derivative.

[2] = test system: "H2" histamine receptor sites; test: Gastric anti-secretory action, secretion stimulated by histamine (Ghosh and Schild method); type: in vivo, Sprague-Dawley rats; details: intravenous dose inhibiting by 50% the gastric secretion caused by histamine 2.5 μmoles/kg i.v., rats
Procedure: (§3) Sprague-Dawley rats having a body weight of from 300 to 350 g are used for studying the antagonistic action of the "H2 " histamine receptor sites by the method described by Ghosh and Schild (1958). The gastric secretion is stimulated by intravenous injection of constant doses of histamine (2.5 μmoles/kg) or of carbachol (5 nmoles /kg). The gastric anti-secretory action is then determined by the intravenous dose (in μmole/kg) of derivative which inhibits by 50% the effect caused by the histamine or carbachol (DI-50).

[3] = test system: Uterus of Rat (agonist Seratonine); test: Test on isolated organ: contraction by serotonine; type: cell-based; details: agonist Seratonine 0.10 μ, read-out: Cl-50 of products, Seratonine
Procedure: as §1, §2

[4] = test system: Ileum of Guinea Pig (agonist Histamine); test: Test on isolated organ: contraction by histamine; type: cell-based; details: Cavia porcellus, agonist Histamine 0.05 μ, read-out: Cl-50 of products, Histamine
Procedure: as §1, §2

[5] = test system: gastric secretion stimulated by carbachol; test: Gastric anti-secretory action, secretion stimulated by carbachol (Ghosh and Schild method); type: in vivo, Sprague-Dawley rats; details: Rattus norvegicus; intravenous dose inhibiting by 50% the gastric secretion caused by carbachol 5 nmoles/kg i.v., rats; read-out: DI-50 with carbachol
Procedure: as §3

[6] = test system: Ileum of Guinea Pig (agonist Acetyl Choline); test: Test on isolated organ: contraction by acetyl choline; type: cell-based; details: Cavia porcellus, agonist Acetyl Choline 0.05 μ, read-out: Cl-50 of products, Acetyl Choline
Procedure: as §1, §2

[7] = Acute toxicity in mice; details: mouse, in vivo
Procedure: The lethal dose 50 (LD-50) of various derivatives administered orally and intra-peritoneally to mice weighing between 20 and 25 g was determined.

[8] = Acute toxicity in rats; details: rat, in vivo; Sprague-Dawley rats 150 to 180 g, oral; read-out: LD-50 by the oral route in rats
Procedure: The acute toxicity was determined by oral means in Sprague-Dawley rats having a body weight of 150 to 180 g. The LD-50 of N-(2-piperidinoethyl)-tertiary-butyl-3'-chlorodiphenylamine hydrochloride by the oral route in rats is above 3500 mg/kg.

[9] = Sub-acute toxicity by oral means with rats; details: rat, in vivo
Procedure: Three batches of Sprague-Dawley rats each consisting of six males and six females were used. N-(2-piperidinoethyl)-4-tertiary-butyl-3'-chlorodiphenylamine hydrochloride was administered orally to the first two batches in doses of 200 mg/kg and 50 mg/kg respectively. The third batch received a zero dose (distilled water) and was thus used as a control.

[10] = ip, mice 20-25 g, intra-peritoneal, read-out: LD-50 i.p.
[11] = mice 20-25 g, oral, read-out: LD-50 Orally

| SMILES | IC50 [1] [µM] | DI-50 with histamine [2] [µmol/kg] | IC50 [3] [µM] | IC50 [4] [µM] | ED50 [5] [µmol/kg] | IC50 [6] [µM] | LD50 ([7]; ip, read-out: LD-50 i.p.) | LD50 ([7]; po, read-out: LD-50 Orally) | LD50 [8] [mg/kg] | mortality ([9]; 50 mg/kg) [%] | mortality ([9]; 200 mg/kg) [%] | LD50 [7, 10] | LD50 [7, 11] |
| --- | --- | --- | --- | --- | --- | --- | --- | --- | --- | --- | --- | --- | --- |
| CC(C)(C)c1ccc(N(CCN2CCCCC2)c2cccc(Cl)c2)cc1 [Example 1, N-(2-piperidino-ethyl)-4-tertiary butyl-3'-chlorodiphenylamine] | 24.5 | 1.0 | 0.38 | 2.25 | > 20 | 25.5 | 1000 mg/kg and 2450 µmol/kg | > 3500 mg/kg and > 8500 µmol/kg | > 3500 | 8.33 | 33 | – | – |
| CCN(CC)CCN(c1ccc(C(C)(C)C)cc1)c1cccc(Cl)c1 [Example 3, N(2-diethylaminoethyl)-4-tert.butyl 3'-chlorodiphenylamine] | 25 | 6.0 | 2.6 | 27.9 | > 20 | 25.3 | – | – | – | – | – | 395 mg/kg and 1000 µmol/kg | > 6000 mg/kg and > 15000 µmol/kg |
| CC(C)(C)c1ccc(N(CCN2CCCC2)c2cccc(Cl)c2)cc1 [Example 4, N(2-pyrrolidinoethyl)-4-tert.butyl 3'-chlorodiphenylamine] | 25.4 | 2.2 | 0.05 | 19.8 | 20 | 25.4 | – | – | – | – | – | 155 mg/kg and 390 µmol/kg | 3000 mg/kg and 7620 µmol/kg |
